Reference: patent US20220354815A1, “OKN-007 AS A THERAPEUTIC AGENT” (Oklahoma Medical Research Foundation, priority 2019, published 2022)

What was measured:
TGF-β1 = TGF-β1 pathway expression; details: gene not directly down-regulated; stated without data
Sodl G93A mutant mice [1] = experiment: ALS disease progression score in Sod1 G93A mutant mice; format: in vivo, mouse
Protocol: (§1) ALS is a debilitating disease that according to the ALS Association affects two per 100,000 people in the USA. There is no cure and the average survival time after diagnosis is three years. In this study, the inventors investigated the impact of treatment with […], an antioxidant, on ALS progression. Female Sodl G93A mutant mice, an established mouse model of ALS, and wildtype (wt) mice were treated with OKN-077 for three months starting at the age of 60 days, before the mice became symptomatic, and compared to age matched untreated controls (both transgenic and wt). Disease progression measured by monitoring disease score on a scale of 1-5 (based on hind limb paralysis and dysfunction) was delayed in the treated mice. All treated mice were at stage 2 at the time of sacrifice at 145 days (end stage disease is ˜160 days), while untreated transgenic controls had progressed to stage ≥2. […] The untreated transgenic control mice had on average 10.7 ±2.1 alpha motor neurons per ventral horn, while the treated transgenic mice had 17.5 ±4.5 alpha motor neurons (a 64% increase). […] These findings indicate that OKN-077 may potentially be considered as a possible therapeutic agent for ALS, and certainly warrants further investigation.

CS99 cells = experiment: Endometrial cancer in vivo, CS99 cells i.p. in athymic nude mice (survival, MRI tumor volume); design: species or system mouse
Protocol: CS99 cells were obtained from K. Moxley (OUHSC). 10^6 cells were injected i.p. into Athymic Nude Foxnlnu mice (Envigo) mice. Gd-DTPA (MRI contrast agent; administered i.v. via a tail-vein-catheter) was used to detect tumors. OKN-077 was administered 150 mg/kg daily in drinking water.

normal cells = experiment: Effects on normal cells; details: stated without data
[2] = system: orthotopic GBM xenografts; details: cited from earlier work
Sodl G93A mutant mice [3] = experiment: MRI (diffusion, perfusion) and MR spectroscopy of spinal cord in G93A mice; format: in vivo, mouse
Protocol: as §1

CD44v6 = CD44v6 biomarker regulation; details: biomarker directly associated with metastasis; stated without data
Sodl G93A mutant mice [4] = experiment: Spinal cord histology (NeuN motor neuron counts, microglia, astrocytes) in G93A mice; format: in vivo, mouse
Protocol: as §1

[5] = Towner et al., Translational Oncology 2019
[6] = previous assessment by the inventors

CC(C)(C)/[N+]([O-])=C/c1ccc(S(=O)(=O)[O-])cc1S(=O)(=O)[O-].[Na+].[Na+] [OKN-077, 2,4-Disulfonyl-N-Tert-Butylnitrone, 2,4-disulfonyl α-phenyl tertiary butyl nitrone]
TGF-β1 protein expression (TGF-β1): decreased | Delay in reaching the score of 2 versus untreated G93A mice (Sodl G93A mutant mice [1]; FIG. 2C): around 14 days | Highest disease score reached (Sodl G93A mutant mice [1]; FIG. 2D, untreated G93A mice reached score 3 around 136 days of age): ≤ 2 | Disease progression (disease score based on hind limb paralysis and dysfunction) (Sodl G93A mutant mice [1]; female G93A mice treated three months from age 60 days, vs untreated transgenic controls): delayed | Disease stage at the time of sacrifice (Sodl G93A mutant mice [1]; sacrifice at 145 days, scale of 1-5, all treated mice): 2 | Disease onset (Sodl G93A mutant mice [1]; treated vs untreated G93A mice (FIG. 2B)): doesn't delay | Survival of tumor-bearing mice compared to untreated (UT) (CS99 cells; 150 mg/kg daily in drinking water, FIG. 7): significant increase | Tumor size on MR images at 21 days after CS99 cell implantations (CS99 cells; compared to untreated tumors, FIG. 8): consistently small tumors | Tumor volumes compared to UT mice (CS99 cells; ~21 days after cell implantation, p<0.0001, FIG. 9): significantly decrease | Adverse effects on normal cells (normal cells): no adverse effects | TMZ-Resistant Glioblastoma (GBM) tumor growth [2, 5]: suppresses | Temozolomide (TMZ) sensitivity [2, 5]: increases | Survival in orthotopic GBM xenografts [2, 6]: increasing | Tumor volumes in orthotopic GBM xenografts [2, 6]: decreasing | Myo-inositol (Myo-Ins)/creatine ratio by MRS (Sodl G93A mutant mice [3]; stated for ALS c (non-treated) vs ALS t (treated) mice, FIG. 6C): significant decrease | Spinal cord metabolite myo-inositol (Sodl G93A mutant mice [3]; treated vs untreated): significantly elevated | Apparent diffusion coefficient (ADC) in the lumbar region of the spinal cord (Sodl G93A mutant mice [3]; treated vs untreated, p<0.001): decreased | Relative tissue blood flow in the spinal cord (Sodl G93A mutant mice [3]; treated vs untreated, p<0.01): significantly increase | ADC in the surrounding muscle tissue (Sodl G93A mutant mice [3]; treated vs untreated, p<0.05): increased | CD44v6 regulation (CD44v6): downregulates | Motor neuron loss (Sodl G93A mutant mice [4]; NeuN stained ventral horn, treated vs untreated G93A p=0.0197): prevents | Astrocyte activation (Sodl G93A mutant mice [4]; mouse, in vivo): didn't affect | Alpha motor neurons per ventral horn (Sodl G93A mutant mice [4]; treated transgenic mice, untreated transgenic 10.7 ±2.1): 17.5 ±4.5 | Microglia activation (Sodl G93A mutant mice [4]; treated vs untreated G93A mice): decreases | Ramified, non-activated microglia (Sodl G93A mutant mice [4]; treated vs untreated G93A mice, p=0.0026): significantly more | Increase in alpha motor neurons versus untreated transgenic mice (Sodl G93A mutant mice [4]; treated vs untreated transgenic mice): 64% | Astrocyte proliferation (Sodl G93A mutant mice [4]; treatment p=0.23, FIGS. 5B and 5C): doesn't affect | Microglia proliferation (number of Ibal+ cells) (Sodl G93A mutant mice [4]; two-way ANOVA, treatment p=0.0244, FIG. 5A): treatment effect
